In patent US8598355B2, “Amide compound” (Astellas Pharma Inc., priority 2008, dated 2013):

How the values were obtained:
rat EP4 receptor [1] = target: T1, rat EP4 receptor (Rattus norvegicus, UniProt P43114); test: In vivo rat EP4 receptor antagonistic activity (ONO-4819/LPS, plasma TNF-α); conditions: SD rat, oral
Description: Evaluation Test of In Vivo Rat EP4 Receptor Antagonistic Activity
A solution of PEG 400:20% Tween 80:aqueous 1 M NaHCO3 solution=1:4:5 of a test compound was orally administered to a SD rat (male, 6-week old) under non-fasting conditions, and after 1 hour, ONO-4819 was administered subcutaneously to the back of the rat. After 30 minutes, Lipopolysaccharide (LPS, 0.01 mg/kg) was administered to the tail vein without anesthesia, and after 60 minutes, 0.5 mL of heparin blood was collected from the fundus under ether anesthesia. The blood sample was centrifuged (3000 rpm, 10 minutes) to separate the plasma, and then the TNF-α concentration in the rat plasma was measured by an ELISA kit (see Hepatology Research Journal, vol. 21, 252-260, 2001). A value obtained by subtracting the TNF-α concentration of the group treated with ONO-4819 from the TNF-α concentration of the group not treated with ONO-4819 was taken as 100%, and the inhibitory rates to the value were calculated for the test compounds.
In this connection, Ex represents the below-described Example compound number.

rat EP4 receptor [2] = target: T1, rat EP4 receptor; test: Rat EP4 receptor antagonistic activity by measurement of cAMP amount (rEP4 cAMP HTRF assay, CHO cells); type: cell-based; set-up: expressed in transfected cells; conditions: inhibition of cAMP, PGE2 100 nM, CHO cells expressing rat EP4
Description: Evaluation Test of Rat EP4 Receptor Antagonistic Activity by Measurement of cAMP Amount
CHO cells in which rat EP4 had been forced to be expressed were seeded in 96-well plates at 2×10^4 cells/100 μL and cultured overnight. The culture medium was replaced with 2 μM Indomethacin/0.1% BSA/alpha-MEM, and further, after 60 minutes, replaced with 1 mM IBMX/2 μM Indomethacin/0.1% BSA/alpha-MEM. After 10 minutes, the test compound was added, and further, after 10 minutes, PGE2 was added at a final concentration of 100 nM. The cells were cultured and reacted in a CO2 incubator (37° C., 5% CO2). After 30 minutes, the culture medium was removed and 100 μL/well of 0.2% Triton X-PBS was added for lysis of the cells. The cAMP contained in this cell lysis solution was measured with a cAMP HiRange kit (Cisbio international). The cell lysis solution was disperesed at 10 μL each into a 384-well U-bottom black microplate (Corning), and a d2 reagent and an europium cryptate reagent were added in this order to each well, each in an amount of 5 μL. It was incubated at room temperature for 60 minutes under light shielding. After incubation, the fluorescence of the cryptate at 620 nm and the fluorescence of the d2 at 655 nm were measured using ARVO1420 (PerkinElmer). The cAMPs of 280, 70, 17.5, 4.38, 1.09, 0.27, and 0.068 nM were measured simultaneously for creating a standard curve. The inhibitory rates were calculated by determining the cAMP amount of each test sample to the value obtained by subtracting the cAMP amount of the group without addition of PGE2 from the cAMP amount of the group with addition of PGE2 of 100 nM. IC50 values are calculated by a Logistic regression method.

EP4 receptor = target: T2, EP4 receptor (Homo sapiens, UniProt P35408); test: EP4 receptor antagonistic activity by measurement of cAMP amount in human Jurkat cells (HTRF); type: cell-based; conditions: inhibition of cAMP, PGE2 100 nM
T2 construct: endogenous in cells; host or cells: Jurkat cells (human leukemia T lymphoma), no transfection described
Description: Evaluation Test of EP4 Receptor Antagonistic Activity by Measurement of cAMP Amount in Human Jurkat Cells
Jurkat cells (derived from human leukemia T lymphoma) were cultured with RPMI1640 (added with 10% fetal bovine serum) using a F75 flask. After proliferation to semiconfluency, indomethacin having a final concentration of 5 μM was added thereto, and the cells were further cultured for 18 hours. The cells were collected in a 15-mL Spitz tube, prepared to be 1×10^6 cells/mL using a Cell Banker (Mitsubishi Kagaku Iatron), and stored at −80° C. until used for assay. The cells were cultured in a CO2 incubator (37° C., 5% CO2).
A cAMP HiRange kit (Cisbio international) was used for cAMP measurement. A test compound, PGE2, and the cells were diluted and prepared with an assay buffer. The test compound was prepared to have a 3-fold concentration relative to the final concentration, PGE2 was prepared to be 300 nM, and the Jurkat cells frozen stored were prepared to be 1×10^6 cells/mL by thawing them at 37° C. To a 384-well U-bottom black microplate (Corning) were added the test compound, the cells, and PGE2 in this order in each in an amount of 5 μL, followed by shaking with a plate shaker and incubating at room temperature for 30 minutes. After incubation, 5 μL of a d2 reagent which had been diluted 0.6-fold with a lysis buffer was added to each well, followed by shaking with a plate shaker. Subsequently, 5 μL of an europium cryptate reagent which had been diluted 0.6-fold with a lysis buffer was added to each well, followed by shaking with a plate shaker and incubating at room temperature for 60 minutes under light shielding. After incubation, the fluorescence of the cryptate at 620 nm and the fluorescence of the d2 at 655 nm were measured using ARVO1420 (PerkinElmer). The cAMPs of 280, 70, 17.5, 4.38, 1.09, 0.27, and 0.068 nM were measured simultaneously for creating a standard curve. All measurements were performed in quadruplicate, and inhibitory rates were calculated by determining the cAMP amount of each test sample to the value obtained by subtracting the cAMP amount of the group without addition of PGE2 from the cAMP amount of the group with addition of PGE2 of 100 nM. IC50 values were calculated by a Logistic regression method.
In this connection, as the “assay buffer” and “lysis buffer” above, those as shown below were used:
Assay buffer; 1×HBSS (Hanks buffered salt solution, Nissui Pharmaceutical Co., Ltd.), 20 mM HEPES (pH 7.4, Nakarai Tesque), 0.5 mM IBMX (3-isobutyl-1-methylxanthine, WAKO), 0.02% CHAPS (Sigma), 0.1% Bovine serum albumin (Sigma), 2 μM Indomethacin (Sigma)
Lysis buffer; 50 mM NaPO4, 0.8 M KF, 1% Triton X-100, 0.2% Bovine serum albumin

T2 sequence (P35408 whole entry): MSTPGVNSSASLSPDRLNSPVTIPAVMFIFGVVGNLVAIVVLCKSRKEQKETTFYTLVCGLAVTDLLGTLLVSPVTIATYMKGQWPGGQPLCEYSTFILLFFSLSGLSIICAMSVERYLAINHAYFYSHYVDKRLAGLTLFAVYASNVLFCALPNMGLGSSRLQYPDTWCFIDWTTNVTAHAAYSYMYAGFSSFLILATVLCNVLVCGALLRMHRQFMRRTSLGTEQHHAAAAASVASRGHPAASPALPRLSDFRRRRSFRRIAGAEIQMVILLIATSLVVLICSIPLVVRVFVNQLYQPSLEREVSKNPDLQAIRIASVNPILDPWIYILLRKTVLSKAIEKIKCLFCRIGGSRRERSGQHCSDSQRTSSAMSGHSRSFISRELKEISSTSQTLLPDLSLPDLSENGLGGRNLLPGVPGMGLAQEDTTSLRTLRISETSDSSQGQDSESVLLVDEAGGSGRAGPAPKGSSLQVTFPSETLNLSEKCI
T1 sequence (P43114 whole entry): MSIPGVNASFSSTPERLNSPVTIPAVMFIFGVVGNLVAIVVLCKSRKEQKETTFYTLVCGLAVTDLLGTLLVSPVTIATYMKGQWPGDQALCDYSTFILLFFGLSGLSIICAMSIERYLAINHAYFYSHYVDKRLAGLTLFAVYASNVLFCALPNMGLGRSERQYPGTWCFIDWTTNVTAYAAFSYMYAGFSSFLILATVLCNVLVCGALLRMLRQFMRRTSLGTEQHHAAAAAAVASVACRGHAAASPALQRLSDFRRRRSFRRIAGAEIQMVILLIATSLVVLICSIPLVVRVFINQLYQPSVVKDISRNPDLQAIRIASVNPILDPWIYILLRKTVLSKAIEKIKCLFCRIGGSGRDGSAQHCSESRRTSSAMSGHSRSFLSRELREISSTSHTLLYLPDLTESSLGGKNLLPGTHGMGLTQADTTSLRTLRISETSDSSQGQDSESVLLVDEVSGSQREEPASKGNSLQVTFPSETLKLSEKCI

Inhibitory rate (%) (rat EP4 receptor [1]; dose 0.01 mg/kg) | IC50 (rat EP4 receptor [2]) [nM] | IC50 (EP4 receptor) [nM] | Inhibitory rate (%) (rat EP4 receptor [1]; dose 0.03 mg/kg) | SMILES
45 | 0.9 | 0.094 | – | O=C(NC[C@H]1CC[C@H](C(=O)O)CC1)c1cc(Cl)cc2ccn(Cc3ccc4ccccc4n3)c12 [Example 53]
– | 0.76 | 0.037 | 113 | O=C(O)c1ccc(CNC(=O)c2cc(Cl)cc3ccn(Cc4ccc5ccccc5n4)c23)cc1 [Example 57]
– | 1.1 | 0.15 | 105 | O=C(NC[C@H]1CC[C@H](C(=O)O)CC1)c1cc(C(F)(F)F)cc2ccn(Cc3ccc4ccccc4n3)c12 [Example 124]
